SMILES strings stand for the structures. Marks after values point to notes of the source that are not given here.

What all share (format): in vivo
Assay [1] concerns haploid embryos of maize plant "A". Kind of assay: Chromosome doubling of isolated haploid immature maize embryos on colchicine medium (Example 2). The conditions noted are these: 0.05% colchicine, 24 hours. Here is the method:
A diploid maize plant, “A”, was pollinated with a haploid inducer line containing GFP. Immature embryos were isolated at 12 days after pollination and the embryo size is ranged from 1.9-2.0 mm long. The diploid embryos, GFP expressing embryos, were discarded. The haploid embryos, based on the absence of the GFP marker expression, were cultured on a medium comprising MS salts, MS vitamins, thiamine, asparagine, BAP, sucrose, gelrite, and 0.05% colchicine with scutellum side up for 24 hours at 26 C in the dark. […] This medium comprised MS salts, MS vitamins, myo-inositol, sucrose, and gelrite. The plantlets germinated from these treated embryos, were transferred to a light culture room at 26 C for another 2 -3 weeks until healthy plantlets with good roots developed. These plantlets were transferred to soil and grown in a regular greenhouse to maturation. The plants were self-pollinated and the mature seeds will be harvested. The harvested seed from each plant will be grown as an ear-row and the plants will examined for uniformity of the plant morphology within each ear-row.

In assay [2] the test system is haploid embryos of maize lines "B" and "C". As to the kind of experiment: Chromosome doubling of isolated haploid immature maize embryos on pronamide medium (Example 3). As to conditions: 6 uM pronamide, 48 hours. Here is the method: Two different diploid maize lines, “B” and “C” were pollinated with a haploid inducer line, containing homozygousGFP. Immature embryos were isolated at 11 days after pollination and embryo size ranged from 1.5-1.6 mm in length. The diploid embryos, embryos showing GFP expression, were discarded. The haploid embryos, embryos not expressing GFP, were cultured on a modified MS medium containing 6 uM pronamide with scutellum side up for 48 hours at 26 C in dark. Alter approximately 48 hours the embryos were transferred to a modified MS medium without any doubling agent. Embryos were placed with scutellum side down for 6-10 days at 26 C in the dark. The plantlets germinated torn these treated embryos were then moved into a light culture room at 28 C for another 3 weeks till healthy plantlets with good roots developed. These plantlets were then transferred to soil and grown in a regular greenhouse to maturation. The plants were self pollinated and the mature seeds will be harvested. The harvested seed will be planted as an ear-row. The plants within a row will be examined for uniformity of the plant morphology.

Assay [3] deals with ears of hybrid maize plants pollinated by haploid inducer plants. As to the kind of experiment: Immature ear treatment for haploid doubling, ear/stalk in liquid medium with Pronamide (Example 6). As to conditions: 5 uM Pronamide, 0.5% DMSO, one day. The text has this:
Hybrid maize plants were pollinated by haploid inducer plants. The ears with part of the stalks attached were harvested from the hybrid plants 4-6 days after pollination (embryo length less than 0.4 mm). The stalks were about 4-8 inches long on each side of where the ears were attached. The ears and the attached stalks are surface sterilized with 70% ethanol or 5% Chlorox. The lower ends of the stalks containing the ears were emerged into liquid medium containing MS medium, MS vitamins, sucrose, etc and 5 uM Pronamide, 0.5% DM SO for one day at 26 C. Then the ears still contained an the stalks were moved to a fresh medium containing MS medium, MS vitamins, sucrose etc. without doubling agent to allow the embryos and kernels to develop. The embryos within the ear can be isolated at any time after doubling. Embryo rescue can then be used to germinate immature embryos into plants. The germinated plants were grown to examine fertility.

In assay [4] the test system is immature embryos of hybrid maize plants pollinated with maternal-haploid-inducing line. As to the kind of experiment: Testing different hybrids and timing of doubling agent (Example 9). Here is the method: A maternal-haploid-inducing maize line was used to pollinate 4 different hybrid plants. The immature embryos derived from these crosses were isolated and placed directly on embryo rescue medium containing 5 uM pronamide. Embryos were kept on the pronamide medium for approximately 36 or 48 hours before being transferred to new media without the doubling agent.
The plantlets germinated from these treated embryos were then transferred into tubes until healthy plantlets with good roofs developed. These plantlets were then transferred to soil and grown in a regular greenhouse to maturation. The plants were self-pollinated and the mature seeds were harvested.

Where [5] appears, read: Ear 1, ear/stalk harvest 6 days after pollination.
[6] abbreviates: Ear 2, ear/stalk harvest 6 days after pollination.
Where [7] appears, read: Ear 3, ear/stalk harvest 5 days after pollination.
[8] abbreviates: Ear 4, ear/stalk harvest 4 days after pollination.

Take `COc1cc2c(c(OC)c1OC)-c1ccc(OC)c(=O)cc1[C@@H](NC(C)=O)CC2` [colchicine, (S)-N-(5,6,7,9-tetrahydro-1,2,3,10-tetramethoxy-9-oxobenzo (a)heptalen-7-yl) acetamide]: the “Fully Fertile Plants” value in assay [1] (Ear 1, 3 haploid embryos) is 2; in assay [1] (Ear 2, 7 haploid embryos), 4*; in assay [1] (Ear 3, 9 haploid embryos), 8; in assay [1] (Sum of 3 ears, 19 haploid embryos), 14. In assay [1] (Sum of 3 ears), the “Fully Fertile Plants, percent of plantlets to greenhouse” value is recorded as “(93.3%)”. Further, the “Plantlets Germinated, percent of haploid embryos” value in assay [1] (Sum of 3 ears) is reported as “(84.2%)”.
Regarding `C#CC(C)(C)NC(=O)c1cc(Cl)cc(Cl)c1` [pronamide, 3,5-dichloro-N-(1,1-dimethyl-2-propynyl)benzamide], the “Fully Fertile Plant” value in assay [2] (Line B, 11 haploid embryos) is 2*; in assay [2] (Line C, 4 haploid embryos) it was 3; in assay [2] (Sum of lines B and C, 15 haploid embryos) it was 5. In assay [2] (Sum of lines B and C), the “Fully Fertile Plant, percent of plantlets to greenhouse” value is given as “(83.3%)”. The “Plantlet Germinated, percent of haploid embryos” value in assay [2] (Sum of lines B and C) is reported as “(53.3%)”. The “% of plants with fertile tassel” value is 67% in assay [3] (setting [5]); 94% in assay [3] (setting [6]); 70% in assay [3] (setting [7]); 95% in assay [3] (setting [8]); 82% in assay [3] (Sum of 4 ears). For the same molecule, the “Number of plants with fertile tassel” value in assay [3] (setting [5]) was 16; in assay [3] (setting [6]), 30; in assay [3] (setting [7]), 14; in assay [3] (setting [8]) it was 19; in assay [3] (Sum of 4 ears) it was 79. The “Number of plants with sterile tassel” value came to 8 in assay [3] (setting [5]); 2 in assay [3] (setting [6]); 6 in assay [3] (setting [7]); 1 in assay [3] (setting [8]); 17 in assay [3] (Sum of 4 ears). In addition, the “# of Double Haploid Plants with Ears” value in assay [4] (5 uM Pronamide 36 hours, Hybrid 1, 11 days after pollination, 100 embryos excised, embryo size 2.5 mm) came out at 1; in assay [4] (5 uM Pronamide 36 hours, Hybrid 1, 12 days after pollination, 300 embryos excised, embryo size 2.5 mm), 1; in assay [4] (5 uM Pronamide 36 hours, Hybrid 2, 11 days after pollination, 176 embryos excised, embryo size 2.5-3 mm), 4; in assay [4] (5 uM Pronamide 36 hours, Hybrid 3, 12 days after pollination, 279 embryos excised, embryo size 2.5-3 mm), 13; in assay [4] (5 uM Pronamide 36 hours, Hybrid 4, 12 days after pollination, 322 embryos excised, embryo size 2.5 mm), 2; in assay [4] (5 uM Pronamide 48 hours, Hybrid 3, 10 days after pollination, 236 embryos excised, embryo size 2 mm), 6. Also, in assay [4] (5 uM Pronamide 48 hours, Hybrid 4, 10 days after pollination, 144 embryos excised, embryo size 2 mm), the “# of Double Haploid Plants with Ears” value was determined as 3. In addition, in assay [4] (5 uM pronamide 36 or 48 hours, sample of plants, 120 molecular markers), the “Homozygosity of progeny of double haploid plants” value is on record as “confirmed for homozygosity”.

The values are drawn from patent publication US20130205438A1, “DOUBLING OF CHROMOSOMES IN HAPLOID EMBRYOS” (PIONEER HI BRED INTERNATIONAL INC, priority 2005, published 2013).
